According to publication PMC3676426 (European journal of clinical pharmacology, 2013):
Like-named read-outs stand apart in the source and are kept apart here.

Columns and labels:
[1] = assay type: in vivo, human; conditions: atorvastatin 40 mg for five days, CGC/CGC, CGC/TTT
[2] = both, human, in vivo, po, 100 mg
[3] = mainly through active tubular secretion; cited from earlier work
[4] = single 600 mg dose of cyclosporine; cited from earlier work
clinical = conditions: both, human, in vivo, 100 mg; for AUC(0-inf): AUC0-∞; for CL renal: CLR; for half-life: t1/2
[5] = atorvastatin 80 mg; cited from earlier work
[6] = simvastatin 40 mg co-administered; cited from earlier work
[7] = simvastatin 80 mg; cited from earlier work

SMILES: CC(C)c1c(C(=O)Nc2ccccc2O)c(-c2ccccc2)c(-c2ccc(F)cc2)n1CCC1CC(O)CC(=O)O1 (stereo not drawn) [2-hydroxyatorvastatin lactone]
- influence of ABCB1 diplotype on pharmacokinetic parameters [1]: not significantly affected

SMILES: CC(C)c1c(C(=O)Nc2ccccc2O)c(-c2ccccc2)c(-c2ccc(F)cc2)n1CCC(O)CC(O)CC(=O)O (stereo not drawn) [2-hydroxyatorvastatin]
- influence of ABCB1 diplotype on pharmacokinetic parameters [1]: not significantly affected

SMILES: CC(C)c1c(C(=O)Nc2ccc(O)cc2)c(-c2ccccc2)c(-c2ccc(F)cc2)n1CCC1CC(O)CC(=O)O1 (stereo not drawn) [4-hydroxyatorvastatin lactone]
- influence of ABCB1 diplotype on pharmacokinetic parameters [1]: not significantly affected

SMILES: CC(C)c1c(C(=O)Nc2ccc(O)cc2)c(-c2ccccc2)c(-c2ccc(F)cc2)n1CC[C@@H](O)C[C@@H](O)CC(=O)O [4-hydroxyatorvastatin]
- influence of ABCB1 diplotype on pharmacokinetic parameters [1]: not significantly affected

SMILES: CC(C)c1c(C(=O)Nc2ccccc2)c(-c2ccccc2)c(-c2ccc(F)cc2)n1CC[C@@H]1C[C@@H](O)CC(=O)O1 [Atorvastatin lactone, atorvastatin lactone]
- influence of ABCB1 diplotype on pharmacokinetic parameters [1]: did not differ significantly

SMILES: N[C@@H](CC(=O)N1CCn2c(nnc2C(F)(F)F)C1)Cc1cc(F)c(F)cc1F [Sitagliptin, sitagliptin]
- Cmax [2]: 438 ± 152 ng/mL
- drug excreted unchanged in the urine [3]: about 80%
- effect of cyclosporine on Cmax [4]: modestly increased
- effect of cyclosporine on overall plasma exposure [4]: did not have a significant effect
- AUC(0-inf) (clinical): 3220 ng·h/mL
- CL renal (clinical): 254 mL/min
- Cmax (clinical): 399 ng/mL
- half-life (clinical): 7.4 ± 2.5 h
- AUC(0-t) (clinical; po, AUC0-24): 3230 ± 1220 ng·h/mL
- AUC(0-inf) (clinical; po): 3640 ± 1440 ng·h/mL
- CL renal (clinical; po): 254 ± 176 mL/min
- Cmax (clinical; po): 454 ± 180 ng/mL
- half-life (clinical; po): 7.3 ± 3 h

SMILES: Cn1c(=O)cc(N2CCC[C@@H](N)C2)n(Cc2ccccc2C#N)c1=O [alogliptin]
- effect of atorvastatin on multiple-dose pharmacokinetics [5]: did not alter

SMILES: N#C[C@@H]1C[C@@H]2C[C@@H]2N1C(=O)[C@@H](N)C12CC3CC(CC(O)(C3)C1)C2 [saxagliptin]
- increase of AUC by simvastatin [6]: 12%

SMILES: N#C[C@@H]1CCCN1C(=O)CNC12CC3CC(CC(O)(C3)C1)C2 [vildagliptin]
- effect of simvastatin on multiple-dose pharmacokinetics [7]: did not alter
